Data: patent publication US12303614B2, “Compositions and methods for improving mechanical properties of a tissue or for regenerating an injured or diseased tissue” (University of Rochester, priority 2019, dated 2025)
Entries after “also recorded” stand apart in the source; their conditions may differ.

Legend:
[1] = test system: HH43 chick embryo calcaneal tendons; experiment: Collagen crosslink density analysis (HP/collagen) after paralysis; format: in vivo; settings: HH43 chick embryos, injections at 0 h and 24 h, 48 h of paralysis
Procedure: Briefly, HH43 chick embryos were either treated with saline (vehicle control), decamethonium bromide (DMB, THERMO FISHER), or pancuronium bromide (PB, THERMO FISHER). Treatments of DMB and PB were performed at 0 h and 24 h by injection through the air-pocket of each egg. After the 48 h of treatments, each embryo was sacrificed by decapitation, was staged, and the calcaneal tendons were dissected for collagen cross-link density analysis. For each biological sample (N=1), 5 tendons were pooled together (5 left calcaneal tendons from 5 chick embryos). In this experiment, collagen crosslink density analysis was performed for biological samples.

[2] = test system: LOX activity; experiment: LOX activity assay of calcaneal tendons after in ovo treatment; format: in vivo, chick; settings: HH43 embryos treated in ovo, 48 h; for reduction of LOX activity levels of calcaneal tendons compared to saline controls: p<0.05
Procedure: (§1) Fertilized white leghorn eggs (University of Connecticut poultry farm) were incubated at 37° C. under high humidity. For developmental characterizations, eggs were not injected. For other experiments, a single dose of sterile saline (control), 0.2% DMB (rigid paralysis), 0.2% pancuronium bromide (PB) (flaccid paralysis), 0.2% 4-AP (hypermotility), or 0.2% 4-AP and 5 mg BAPN per gram of embryo dry mass (to simultaneously induce hypermotility and inhibition of LOX activity) was injected at the air sac end of an HH43 egg and incubated for another 48 h, as previously described (10). DMB dosage was based on previous studies that paralyzed the embryo without affecting gross development (3). […] At specific timepoints, chick embryos were sacrificed by decapitation and staged based on anatomical features (15). The calcaneal tendon was homogenized in TRIzol LS reagent, snap frozen for protein and enzyme assays, or embedded for cryosectioning.
Western blot to semi-quantitatively measure proLOX levels was performed with rabbit anti-proLOX antibody or rabbit anti-β-actin antibody (ABCAM, MA). ProLOX and β-actin levels were quantified by densitometry at ˜50 kDa and ˜40 kDa molecular bands, respectively. LOX activity of each sample was measured using a LOX activity assay kit (ABCAM, MA). Recombinant LOXL2 enzyme (R&D Systems, MN) was used as a positive control for each assay.

[3] = test system: HH43 chick embryo calcaneal tendons; experiment: Fibrillar collagen content and organization by F-SHG two photon microscopy; format: in vivo; settings: HH43 chick embryos, 48 h
Procedure: as §1
(§2) Calcaneal tendons of staged embryos were cryoembedded as previously described (10) and cryosectioned at 50 μm thickness.
Tendon cryosections were immersed in Ca^2+/Mg^2+-free phosphate buffered saline (PBS) to remove O.C.T. A 20× water objective imaged a 220×220 μm region in the center of tendon midsubstance in PBS. Collagen was characterized by F-SHG at 800 nm excitation, and signal was collected by a photomultiplier tube using a 405DF30 filter. Background was determined with laser off. Background was subtracted from each F-SHG image using MATLAB (MATHWORKS, MA) and then average pixel intensities of each image were calculated to assess collagen content per unit area.

[4] = test system: HH43 chick embryo calcaneal tendons; experiment: Calcaneal tendon elastic modulus by force volume-AFM after in ovo treatment; format: in vivo; settings: HH43 chick embryos, 48 h; for calcaneal tendon elastic modulus relative to controls: single in ovo injection, vs saline
Procedure: as §1, §2
Force volume-AFM was used to characterize tendon elastic modulus using previously established methods (10). Briefly, tendon cryosections were immersed in PBS to remove O.C.T. A silicon nitride tip probe (˜20 nm radius) with a spring constant of 0.06 N/m (BRUKER, CA) was used on an MFP-3D AFM (ASYLUM RESEARCH, CA) to obtain force curves in a 64×64 2-dimensional array over a 10 μm×10 μm tissue region in the center of the tendon midsubstance with a 1.0 μm indentation trigger point. The sample was indented at 6 μm/s, at which tendon elastic properties were previously characterized with negligible viscous effects (10). Elastic modulus was calculated by fitting force displacement curves at each indentation to the Hertzian model using equations adapted from a previous study (10).

[5] = test system: HH43 chick embryos; experiment: Gross development: anatomical staging and leg appearance of treated embryos; format: in vivo
Procedure: as §1

[6] = test system: chick embryos; settings: HH36 to HH44 chick embryos, for at least 24 h, previous studies (14); cited from earlier work
[7] = test system: chick embryos; experiment: Embryo movement frequency after injection; format: in vivo; settings: within 1 min of injection, lasted 48 h (data not shown)
Procedure: as §1

[8] = treated at HH43, harvested after 48 h, compared with non-injected HH45
[9] = treated at HH43 for 48 h, N ≥ 6, expected stage HH45

Structure (SMILES) | hydroxylysyl pyridinoline (HP)/collagen ratio compared to saline-treated tendons [1] | LOX activity levels in calcaneal tendons compared to controls [2] | reduction of LOX activity levels of calcaneal tendons compared to saline controls [2] [fold] | apparent collagen organization [3] | calcaneal tendon elastic modulus relative to controls [4] | gross appearance of legs at harvest [5, 8] | Stage (HH) of embryos at harvest (mean ± standard deviation (std)) [5, 9] [HH] | collagen content relative to controls [3] | reduction of calcaneal tendon modulus relative to controls ([4]; paralysis) [fold] | Stage (HH) of embryos at harvest (mean ± standard deviation (std)) ([5]; in vivo) [HH] | gross appearance of legs at harvest ([5]; in vivo) | hypermotility induced by a single injection [6] | increase of embryo movement frequency [7] [%] | increase of calcaneal tendon modulus relative to controls ([4]; hypermotility) [fold]
CC(=O)O[C@H]1C[C@@H]2CC[C@@H]3[C@H](CC[C@@]4(C)[C@H]3C[C@H]([N+]3(C)CCCCC3)[C@@H]4OC(C)=O)[C@@]2(C)C[C@@H]1[N+]1(C)CCCCC1 [PB, pancuronium bromide] | lower | significantly lower | 2 |  |  |  |  |  |  |  |  |  |  | 
N#CCCN [BAPN, β-aminopropionitrile] |  |  |  | appeared normal | reduced | appeared similar to non-injected HH45 legs | 45 ± 0.5 |  |  |  |  |  |  | 
C[N+](C)(C)CCCCCCCCCC[N+](C)(C)C [DMB, decamethonium bromide] | lower | significantly reduced | 2 | Neither treatment affected | significantly reduced |  |  | Neither treatment affected | 2 | 45 ± 0.4 | hyperextended digits |  |  | 
Nc1ccncc1 [4-AP, 4-aminopyridine] |  | no effects |  | Neither treatment affected; also recorded: appeared normal | significantly upregulated; also recorded: higher | appeared similar to non-injected HH45 legs | 45 ± 0.4 | Neither treatment affected |  |  |  | up to 400% | 200 | 2
